# Test results taken from patent US12156917B2, “CNP prodrugs with carrier attachment at the ring moiety” (ASCENDIS PHARMA GROWTH DISORDERS A/S, priority 2016, dated 2024).
# Bridge positions count the residues as written; N and C are the ends. Ends that are not written are not given here.
# Assays:
# [1] = test system: Crl:CD1(ICR) mice; assay: Evaluation of cardiovascular effects in the conscious telemetered mouse (subcutaneous administration); type: in vivo
# Procedure: Male Crl:CD1(ICR) mice (age range 8-13 weeks and body weight range 27.3-35.6 g at start of dosing) were surgically implanted with a TA11PA-C10 telemetry transmitter (Data Sciences International (DSI)) in the carotid artery. The body of the transmitter was placed subcutaneously in the lateral flank of the mouse. The mice were dosed subcutaneously in a latin square crossover design with at least 72 hours between dosing occasions. […] At least four mice were included at each dose level. Blood pressure (systolic (SAP), diastolic (DAP) and mean (MAP) and heart rate (HR, derived from blood pressure), were recorded using a digital data capture system linked with a DSI™ Ponemah data acquisition and analysis system. The capture system allowed recording of the cardiovascular parameters whilst the mice were in individual cages. On the day of each test session the animals were weighed and a predose recording was performed for at least 60 min prior to dosing. Each mouse was returned to the home cage and the cardiovascular parameters were recorded for approximately 48 hours postdose. Blood pressure and HR were reported at the following time points: −30, −20, −10, 5, 15 and 30 min postdose and 1, 2, 6, 12, 18, 24, 30, 36, 42 and 48 hours postdose. Each time point was presented as the average value of five minute's recording prior to the time point. The monitoring period was selected to cover exposure to the test items both prior to and after Tnax.
# [2] = doses up to 15 μg/kg, healthy volunteers; cited from earlier work
# [3] = in vivo; cited from earlier work
Compound,"MAP predose (mean±SD) ([1]; predose, n = 4)","heart rate (HR) ([1]; sc, 800 μg CNP-38 eq/kg, up to 48 hours postdose)","MAP 5 min post dose (mean±SD) ([1]; sc, 800 μg CNP-38 eq/kg, n = 4)","MAP 15 min post dose (mean±SD) ([1]; sc, 800 μg CNP-38 eq/kg, n = 4)","MAP 30 min post dose (mean±SD) ([1]; sc, 800 μg CNP-38 eq/kg, n = 4)",blood pressure effect [2],half-life [3]
CC[C@H](C)[C@@H]1NC(=O)[C@H](CCCNC(=N)N)NC(=O)[C@H](CC(=O)O)NC(=O)[C@H](CC(C)C)NC(=O)[C@H](CCCCN)NC(=O)[C@H](CC(C)C)NC(=O)CNC(=O)[C@H](Cc2ccccc2)NC(=O)[C@@H](NC(=O)CNC(=O)[C@H](CCCCN)NC(=O)[C@H](CO)NC(=O)[C@H](CC(C)C)NC(=O)CNC(=O)[C@H](CCCCN)NC(=O)[C@H](CCCCN)NC(=O)[C@H](CC(N)=O)NC(=O)[C@H](C)NC(=O)CNC(=O)[C@H](CCCCN)NC(=O)[C@H](Cc2ccc(O)cc2)NC(=O)[C@H](CCCCN)NC(=O)[C@H](CCCNC(=N)N)NC(=O)[C@H](C)NC(=O)[C@H](CC(N)=O)NC(=O)[C@@H]2CCCN2C(=O)[C@H](Cc2c[nH]cn2)NC(=O)[C@H](CCC(=O)O)NC(=O)[C@H](CCC(N)=O)NC(=O)[C@@H](N)CC(C)C)CSSC[C@@H](C(=O)O)NC(=O)CNC(=O)[C@H](CC(C)C)NC(=O)CNC(=O)[C@H](CO)NC(=O)[C@H](CCSC)NC(=O)[C@H](CO)NC(=O)CNC1=O [CNP-38],106.8 ± 13.4 mmHg,not impacted,102.0 ± 7.5 mmHg,89.5 ± 29.4 mmHg,99.5 ± 25.2 mmHg,,
"BMN-111: modified recombinant human C-type Natriuretic Peptide; 17 amino acids added to form a 39 amino acid CNP analog (PGQEHPNARKYKGANKKGLSKGCFGLKLDRIGSMSGLGC; disulfide 23-39; chains of the INN, looked up)",,,,,,mild hypotension,20 min
